Data on eleven compounds can be found in PubChem BioAssay AID226 (DTP/NCI, 2004).

Where “and” joins values, the source holds several entries; their conditions need not be identical. Equal values may be shown once. Toxic doses and inconclusive results are not listed.

The subject of this assay is B6C3F1 mice, intracerebral ependymoblastoma, median survival T/C. Kind of assay: NCI In Vivo Anticancer Drug Screen. Data for tumor model Ependymoblastoma (intracerebral) in B6C3F1 mice. To be noted: endpoint: median survival time, higher = longer survival. The protocol: The antitumor activity of compounds was measured in mice bearing transplantable tumors. Survival or tumor size were measured and the results are expressed as the measurement made in the treated group (T) divided by the measurement made in the vehicle treated control group (C). The tumor model used in this assay is Ependymoblastoma (intracerebral) in B6C3F1 mice

Setting [1] is: dose: 25.0 mg/kg/injection, schedule: Q01DX005 (ip), vehicle: saline with Tween-80.
Where [2] appears, read: dose: 25.0 mg/kg/injection, schedule: Q01DX005 (ip), vehicle: Klucel (hydroxypropylcellulose) (HPC).
[3] abbreviates: dose: 50.0 mg/kg/injection, schedule: Q01DX005 (ip), vehicle: Klucel (hydroxypropylcellulose) (HPC).
Setting [4] is: dose: 100.0 mg/kg/injection, schedule: Q01DX005 (ip), vehicle: Klucel (hydroxypropylcellulose) (HPC).
Where [5] appears, read: dose: 200.0 mg/kg/injection, schedule: Q01DX005 (ip), vehicle: Klucel (hydroxypropylcellulose) (HPC).
Setting [6] is: dose: 400.0 mg/kg/injection, schedule: Q01DX005 (ip), vehicle: Klucel (hydroxypropylcellulose) (HPC).

`Nc1ccc(S(N)(=O)=O)cc1`: the T/C is, setting by setting: under setting [1], 98 % of control; (dose: 50.0 mg/kg/injection, schedule: Q01DX005 (ip), vehicle: saline with Tween-80) 96 % of control and 103 % of control; (dose: 100.0 mg/kg/injection, schedule: Q01DX005 (ip), vehicle: saline with Tween-80) 101 % of control and 103 % of control; (dose: 200.0 mg/kg/injection, schedule: Q01DX005 (ip), vehicle: saline with Tween-80) 92 % of control and 102 % of control; (dose: 400.0 mg/kg/injection, schedule: Q01DX005 (ip), vehicle: saline with Tween-80) 101 % of control and 107 % of control; (dose: 800.0 mg/kg/injection, schedule: Q01DX005 (ip), vehicle: saline with Tween-80) 95 % of control.

Regarding `COc1nc(C(Cl)(Cl)Cl)c(Cl)c(OC)c1Cl`, the T/C was 94 % of control under setting [2], 107 % of control under setting [3] and 114 % of control under setting [4].

On to `CC(=O)NNC(=O)c1ccccn1`, for which the T/C reads like this: under setting [4], 101 % of control and 110 % of control; under setting [5], 92 % of control and 90 % of control; under setting [6], 95 % of control and 103 % of control.

With `CC1(C)OCC(CO)(Nc2nc(N3CC3)nc(N3CC3)n2)CO1`, the T/C (dose: 1.25 mg/kg/injection, schedule: Q01DX005 (ip), vehicle: suspension in saline) was 105 % of control; the T/C (dose: 2.5 mg/kg/injection, schedule: Q01DX005 (ip), vehicle: suspension in saline) is 103 % of control; the T/C (dose: 5.0 mg/kg/injection, schedule: Q01DX005 (ip), vehicle: suspension in saline) is 113 % of control.

In the case of `CC(=O)CC(c1ccccc1)c1c(O)c2ccccc2oc1=O` (stereo unspecified), the T/C runs as follows: (dose: 0.05 mg/kg/injection, schedule: Q01DX005 (ip), vehicle: Klucel (hydroxypropylcellulose) (HPC)) 113 % of control; (dose: 0.1 mg/kg/injection, schedule: Q01DX005 (ip), vehicle: Klucel (hydroxypropylcellulose) (HPC)) 100 % of control and 108 % of control; (dose: 0.2 mg/kg/injection, schedule: Q01DX005 (ip), vehicle: Klucel (hydroxypropylcellulose) (HPC)) 105 % of control and 110 % of control; (dose: 0.4 mg/kg/injection, schedule: Q01DX005 (ip), vehicle: Klucel (hydroxypropylcellulose) (HPC)) 98 % of control and 104 % of control; (dose: 0.8 mg/kg/injection, schedule: Q01DX005 (ip), vehicle: Klucel (hydroxypropylcellulose) (HPC)) 101 % of control and 88 % of control; (dose: 1.6 mg/kg/injection, schedule: Q01DX005 (ip), vehicle: Klucel (hydroxypropylcellulose) (HPC)) 98 % of control.

Turning to `COc1cccc2c1C(=O)c1c(O)c3c(c(O)c1C2=O)C[C@@](O)(C(C)=O)C[C@@H]3OC1CC(N)C(O)C(C)O1` (stereo partly specified), the T/C reads like this: (dose: 0.12 mg/kg/injection, schedule: Q01DX005 (ip), vehicle: water) 105 % of control; (dose: 0.25 mg/kg/injection, schedule: Q01DX005 (ip), vehicle: water) 102 % of control; (dose: 0.5 mg/kg/injection, schedule: Q01DX005 (ip), vehicle: water) 93 % of control and 105 % of control; (dose: 1.0 mg/kg/injection, schedule: Q01DX005 (ip), vehicle: water) 92 % of control and 93 % of control; (dose: 2.0 mg/kg/injection, schedule: Q01DX005 (ip), vehicle: water) 104 % of control.

Regarding `CC(=O)OCC1OC(n2ccc(N)nc2=O)C(OC(C)=O)C1OC(C)=O` (stereo unspecified), the T/C is, setting by setting: under setting [3], 98 % of control; under setting [4], 102 % of control; under setting [5], 117 % of control.

As for `ClC1C(Cl)C(Cl)C(Cl)C(Cl)C1Cl` (stereo unspecified), the T/C is 100 % of control (dose: 12.5 mg/kg/injection, schedule: Q01DX005 (ip), vehicle: Klucel (hydroxypropylcellulose) (HPC)); 107 % of control and 108 % of control under setting [2]; 95 % of control and 102 % of control under setting [3]; 117 % of control and 118 % of control under setting [4]; 98 % of control and 107 % of control under setting [5]; 107 % of control under setting [6].

For `O=c1n(CC2CO2)c(=O)n(CC2CO2)c(=O)n1CC1CO1` (stereo unspecified), the T/C is 113 % of control (dose: 16.4 mg/kg/injection, schedule: Q01DX004 (ip), vehicle: saline); 107 % of control (dose: 16.4 mg/kg/injection, schedule: Q01DX009 (ip), vehicle: saline); 117 % of control and 119 % of control (dose: 20.0 mg/kg/injection, schedule: Q01DX009 (ip), vehicle: saline); 111 % of control (dose: 20.5 mg/kg/injection, schedule: Q01DX004 (ip), vehicle: saline); 112 % of control (dose: 20.5 mg/kg/injection, schedule: Q01DX009 (ip), vehicle: saline); 98 % of control under setting [1]. The T/C was 107 % of control (dose: 25.6 mg/kg/injection, schedule: Q01DX004 (ip), vehicle: saline); 113 % of control (dose: 25.6 mg/kg/injection, schedule: Q01DX009 (ip), vehicle: saline); 165 % of control (dose: 30.0 mg/kg/injection, schedule: Q01DX009 (ip), vehicle: saline); 115 % of control (dose: 32.0 mg/kg/injection, schedule: Q01DX004 (ip), vehicle: saline); 121 % of control (dose: 32.0 mg/kg/injection, schedule: Q01DX009 (ip), vehicle: saline); 95 % of control (dose: 49.2 mg/kg/injection, schedule: Q01DX001 (ip), vehicle: saline). Also, the T/C is 113 % of control (dose: 50.0 mg/kg/injection, schedule: Q01DX009 (ip), vehicle: saline); 109 % of control (dose: 61.4 mg/kg/injection, schedule: Q01DX001 (ip), vehicle: saline); 112 % of control (dose: 76.8 mg/kg/injection, schedule: Q01DX001 (ip), vehicle: saline); 106 % of control (dose: 96.0 mg/kg/injection, schedule: Q01DX001 (ip), vehicle: saline); 121 % of control (dose: 120.0 mg/kg/injection, schedule: Q01DX001 (ip), vehicle: saline); 119 % of control (dose: 150.0 mg/kg/injection, schedule: Q01DX001 (ip), vehicle: saline).

In the case of `COc1cc([C@@H]2c3cc4c(cc3[C@@H](OC3OC5CO[C@@H](c6cccs6)OC5C(O)C3O)[C@H]3COC(=O)[C@H]23)OCO4)cc(OC)c1O` (stereo partly specified), the T/C is 103 % of control (dose: 0.25 mg/kg/injection, schedule: Q01DX005 (ip), vehicle: saline); 90 % of control (dose: 0.5 mg/kg/injection, schedule: Q01DX005 (ip), vehicle: saline); 92 % of control (dose: 1.0 mg/kg/injection, schedule: Q12HX006 (ip), vehicle: saline); 118 % of control (dose: 2.0 mg/kg/injection, schedule: Q01DX005 (ip), vehicle: saline); 122 % of control (dose: 2.0 mg/kg/injection, schedule: Q01DX005 (oral), vehicle: saline); 93 % of control (dose: 2.0 mg/kg/injection, schedule: Q12HX002 (ip), vehicle: saline). Moreover, the T/C was 119 % of control (dose: 2.0 mg/kg/injection, schedule: Q12HX006 (ip), vehicle: saline); 100 % of control and 105 % of control (dose: 4.0 mg/kg/injection, schedule: Q01DX001 (ip), vehicle: saline); 124 % of control (dose: 4.0 mg/kg/injection, schedule: Q01DX005 (oral), vehicle: saline); 93 % of control (dose: 4.0 mg/kg/injection, schedule: Q12HX002 (ip), vehicle: saline); 119 % of control (dose: 4.0 mg/kg/injection, schedule: Q12HX006 (ip), vehicle: saline); 110 % of control and 111 % of control and 118 % of control (dose: 8.0 mg/kg/injection, schedule: Q01DX001 (ip), vehicle: saline). In addition, the T/C runs as follows: (dose: 8.0 mg/kg/injection, schedule: Q01DX005 (oral), vehicle: saline) 113 % of control; (dose: 8.0 mg/kg/injection, schedule: Q12HX002 (ip), vehicle: saline) 90 % of control; (dose: 8.0 mg/kg/injection, schedule: Q12HX006 (ip), vehicle: saline) 122 % of control; (dose: 16.0 mg/kg/injection, schedule: Q01DX001 (ip), vehicle: saline) 112 % of control and 115 % of control and 118 % of control; (dose: 16.0 mg/kg/injection, schedule: Q01DX001 (oral), vehicle: saline) 94 % of control and 101 % of control; (dose: 16.0 mg/kg/injection, schedule: Q12HX002 (ip), vehicle: saline) 93 % of control. For the same compound, the T/C reads like this: (dose: 32.0 mg/kg/injection, schedule: Q01DX001 (ip), vehicle: saline) 104 % of control and 109 % of control and 117 % of control; (dose: 32.0 mg/kg/injection, schedule: Q01DX001 (oral), vehicle: saline) 109 % of control and 110 % of control (2×); (dose: 64.0 mg/kg/injection, schedule: Q01DX001 (oral), vehicle: saline) 104 % of control and 109 % of control and 115 % of control; (dose: 128.0 mg/kg/injection, schedule: Q01DX001 (oral), vehicle: saline) 97 % of control and 109 % of control.

For `S=P(N1CC1)(N1CC1)N1CC1`, under “dose: 8.0 mg/kg/injection, schedule: Q01DX005 (ip), vehicle: saline”, the T/C was 169 % of control.
